Counter-ions that a name gives are not always drawn. Like-named read-outs stand apart in the source and are kept apart here.
Key:
[1] = target: Recombinant human PKC-theta (His-tagged 362-706) (Homo sapiens (Human), UniProt Q04759); assay: PKC-theta inhibition assay (HTRF KinEASE kit); assay type: biochemical; conditions: ATP 6.5 μM
In short: (§1)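 HTRF KinEASE kinase assay, buffer supplemented with 10 mM MgCl2, 1 mM DTT, 0.1% Tween 20; enzyme at 10 ng/ml preincubated 30 min on ice with compound. PKC-theta: 525 nM STK substrate, 6.5 μM ATP, 30 min at 25° C; PKC-delta: 243 nM substrate, 5.7 μM ATP, 20 min. IC50 from 4-parameter fit of 10-dose series.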

[2] = test system: IL-2 secretion by human effector memory T cells (TEM); assay: Effector memory T cells IL-2 release assay; assay type: cell-based; conditions: T-cell, 24 h
In short: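 Human CD4+ effector memory T cells (negatively sorted from donor PBMC), 5,000 per well, stimulated with CD3/CD28 beads and 10 semi-log compound doses for 24 h at 37° C, 0.1% DMSO. Supernatant IL-2 measured by HTRF; IC50 from 4-parameter logistic fit; viability checked by flow cytometry.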

[3] = target: Recombinant human PKC-delta (His-tagged 345-676) (Homo sapiens (Human), UniProt Q05655); assay: PKC-delta inhibition assay (HTRF KinEASE kit), PKC-theta/PKC-delta selectivity; assay type: biochemical; conditions: ratio; for PKC-theta/PKC-delta selectivity: PKC-theta over PKC-delta, HTRF assays; for PKC-theta/PKC-delta selectivity (binned): binned A to G
Recombinant human PKC-delta (His-tagged 345-676), sequence (Q05655 345-676): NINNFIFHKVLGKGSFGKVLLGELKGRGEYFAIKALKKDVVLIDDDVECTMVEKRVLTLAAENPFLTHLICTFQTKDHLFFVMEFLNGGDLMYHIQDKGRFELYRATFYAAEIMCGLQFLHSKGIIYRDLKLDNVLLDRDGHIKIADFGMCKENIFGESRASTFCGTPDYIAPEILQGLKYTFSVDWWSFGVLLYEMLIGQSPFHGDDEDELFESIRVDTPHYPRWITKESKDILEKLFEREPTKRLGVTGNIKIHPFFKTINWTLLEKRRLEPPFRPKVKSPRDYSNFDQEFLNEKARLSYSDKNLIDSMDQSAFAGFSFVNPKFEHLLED
In short: as §1

[4] = binned A to H, read-out: PKC-theta HTRF pIC50 (binned) (converted)
[5] = read-out: PKC-theta HTRF pIC50 (converted)
[6] = human CD4+ TEM cells, CD3/CD28 bead stimulation, binned A to G, read-out: PKC-theta IL2 pIC50 (binned) (converted)
[7] = human CD4+ TEM cells, CD3/CD28 bead stimulation, read-out: PKC-theta IL2 pIC50 (converted)
[8] = Homo sapiens, read-out: PKC-theta IL2 pIC50 (binned) (converted)
[9] = Homo sapiens, read-out: PKC-theta IL2 pIC50 (converted)

Recombinant human PKC-theta (His-tagged 362-706), sequence (Q04759 362-706): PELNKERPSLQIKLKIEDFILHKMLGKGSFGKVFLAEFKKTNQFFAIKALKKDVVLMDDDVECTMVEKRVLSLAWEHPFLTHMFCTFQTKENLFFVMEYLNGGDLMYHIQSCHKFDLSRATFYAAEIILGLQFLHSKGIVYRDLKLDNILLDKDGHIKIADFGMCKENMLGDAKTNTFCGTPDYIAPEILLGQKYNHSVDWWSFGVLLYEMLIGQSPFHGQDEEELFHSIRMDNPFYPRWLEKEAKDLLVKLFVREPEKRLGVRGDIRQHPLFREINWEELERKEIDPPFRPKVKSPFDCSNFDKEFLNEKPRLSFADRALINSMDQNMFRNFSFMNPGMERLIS

Row | Compound | IC50 [1, 4] | IC50 [1, 5] | IC50 [2, 6] | IC50 [2, 7] | PKC-theta/PKC-delta selectivity [3] | PKC-theta/PKC-delta selectivity (binned) [3] | PKC-theta HTRF pIC50 [1] | IC50 [2, 8] | IC50 [2, 9]
1 | C[C@@]1(O)C(=O)Nc2nccc(-c3nn(C4(CC#N)CNC4)c4ccccc34)c21 (single isomer, unassigned) [Example 49] | 3.16 to 10 nM | 6.31 nM | 100 to 316 nM | 316 nM | 3 | F (F means a ratio of between 1 and 5) |  |  | 
2 | COCc1cc(-c2ccnc3[nH]c(=O)[nH]c23)cn1C1CCNCC1 [Example 4] | > 1000 nM |  | > 1000 nM | 3980 nM | 2 | F (F means a ratio of between 1 and 5) | 6.0 |  | 
3 | CC[C@@]1(C)C(=O)Nc2nccc(-c3nn([C@H]4CCNC[C@H]4F)c4cc(F)ccc34)c21 (single isomer, unassigned) [Example 104] | ≤ 1 nM | 0.794 nM | 10 to 31.6 nM | 12.6 nM | 17 | D (D means a ratio of between 10 and 20) |  |  | 
4 | CC1(C)C(=O)Nc2nccc(-c3nn([C@H]4CC[C@H](N)CC4)c4ccccc34)c21 [Example 41] | ≤ 1 nM |  | 10 to 31.6 nM | 15.8 nM | 14 | D (D means a ratio of between 10 and 20) | 9.4 |  | 
5 | CC1(C)C(=O)Nc2nccc(-c3nn(C4(CC#N)CCC4)c4ccccc34)c21 [Example 22] | 3.16 to 10 nM |  | 316 to 1000 nM | 316 nM | 15 | D (D means a ratio of between 10 and 20) | 8.0 |  | 
6 | CC[C@]1(O)C(=O)Nc2nccc(-c3nn([C@H]4CCNC[C@H]4F)c4ccccc34)c21 (single isomer, unassigned) [Example 84] | 31.6 to 100 nM | 31.6 nM | > 1000 nM | 1260 nM | 14 | D (D means a ratio of between 10 and 20) |  |  | 
7 | CO[C@@]1(C)C(=O)Nc2nccc(-c3nn(C4(CC#N)CCC4)c4ccccc34)c21 (single isomer, unassigned) [Example 80] | ≤ 1 nM | 0.794 nM | 10 to 31.6 nM | 20 nM | 9 | E (E means a ratio of between 5 and 10) |  |  | 
8 | C[C@]1(O)C(=O)Nc2nccc(-c3nn(C4CCNCC4)c4ccccc34)c21 (single isomer, unassigned) [Example 28] | 1 to 3.16 nM | 2 nM | 10 to 31.6 nM | 31.6 nM | 15 | D (D means a ratio of between 10 and 20) |  |  | 
9 | CC[C@]1(C)C(=O)Nc2nccc(-c3nn([C@H]4CCNC[C@H]4F)c4ccccc34)c21 (single isomer, unassigned) [Example 108] | 1 to 3.16 nM | 3.16 nM | 31.6 to 100 nM | 50.1 nM | 17 | D (D means a ratio of between 10 and 20) |  |  | 
10 | CC1(C)C(=O)Nc2nccc(-c3ccn(C4CCNCC4)c3)c21 [Example 6] | 31.6 to 100 nM |  | 316 to 1000 nM | 631 nM | 3 | F (F means a ratio of between 1 and 5) | 7.4 |  | 
11 | CC1(C)C(=O)Nc2nccc(-c3nn([C@H]4CCNC[C@@H]4F)c4ccccc34)c21 (racemic) [Example 36] | 3.16 to 10 nM |  | 100 to 316 nM | 126 nM | 14 | D (D means a ratio of between 10 and 20) | 8.3 |  | 
12 | CC1(O)C(=O)Nc2nccc(-c3cn(C4CCNCC4)c4ccccc34)c21 (stereo not drawn) [Example 12] | 3.16 to 10 nM |  | 100 to 316 nM | 200 nM | 11 | D (D means a ratio of between 10 and 20) | 8.1 |  | 
13 | CC1(C)C(=O)Nc2nccc(-c3ccn(C4CCNCC4)n3)c21 [Example 8, 3,3-dimethyl-4-[1-(4-piperidyl)pyrazol-3-yl]-1H-pyrrolo[2,3-b]pyridin-2-one Dihydrochloride] | 3.16 to 10 nM |  |  |  | 5 | E (E means a ratio of between 5 and 10) | 8.1 | 100 to 316 nM | 126 nM
14 | CC1(C)C(=O)Nc2nccc(-c3nn(C4CCNCC4)c4ccccc34)c21 [Example 9] | 1 to 3.16 nM |  | 31.6 to 100 nM | 39.8 nM | 15 | D (D means a ratio of between 10 and 20) | 8.7 |  | 
15 | CC1(C)C(=O)Nc2nccc(-c3cn(C4CCNCC4)c4ccccc34)c21 [Example 7, 3,3-dimethyl-4-[1-(4-piperidyl)indol-3-yl]-1H-pyrrolo[2,3-b]pyridin-2-one Dihydrochloride] | 31.6 to 100 nM |  |  |  | 6 | E (E means a ratio of between 5 and 10) | 7.4 | 316 to 1000 nM | 501 nM
16 | CC1(C)C(=O)Nc2nccc(-c3nn(CC4(F)CCCNC4)c4ccccc34)c21 (stereo not drawn) [Example 44] | 31.6 to 100 nM |  | 100 to 316 nM | 251 nM | 14 | D (D means a ratio of between 10 and 20) | 7.5 |  | 
17 | CN[C@]1(C)C(=O)Nc2nccc(-c3nn(C4(CC#N)CCC4)c4ccccc34)c21 (single isomer, unassigned) [Example 95] | ≤ 1 nM | 0.126 nM | 1 to 3.16 nM | 1.58 nM | 25 | C (C means a ratio of between 20 and 30) |  |  | 
18 | CC1(O)C(=O)Nc2nccc(-c3ccn(C4CCNCC4)n3)c21 (stereo not drawn) [Example 13] | 31.6 to 100 nM |  | 316 to 1000 nM | 631 nM | 4 | F (F means a ratio of between 1 and 5) | 7.4 |  | 
19 | CC1(O)C(=O)Nc2nccc(-c3nn([C@@H]4CCNC[C@@H]4F)c4ccccc34)c21 (stereo partly drawn) [Example 34] | 1 to 3.16 nM |  | 31.6 to 100 nM | 39.8 nM | 12 | D (D means a ratio of between 10 and 20) | 8.8 |  | 
20 | O=c1[nH]c2nccc(-c3ccn(C4CCNCC4)c3)c2[nH]1 [Example 3, 7-[1-(4-piperidyl)pyrrol-3-yl]-1,3-dihydroimidazo[4,5-b]pyridin-2-one; Dihydrochloride] | 100 to 316 nM |  |  |  | 1 | F (F means a ratio of between 1 and 5) | 6.7 | > 1000 nM | 6310 nM
21 | CC1(O)C(=O)Nc2nccc(-c3nn([C@H]4CCNC[C@@H]4F)c4ccccc34)c21 (stereo partly drawn) [Example 35] | 3.16 to 10 nM |  | 31.6 to 100 nM | 100 nM | 11 | D (D means a ratio of between 10 and 20) | 8.5 |  | 
22 | CC[C@@]1(C)C(=O)Nc2nccc(-c3nn([C@H]4CCNC4)c4ccccc34)c21 (single isomer, unassigned) [Example 66] | 3.16 to 10 nM | 3.98 nM | 31.6 to 100 nM | 100 nM | 21 | C (C means a ratio of between 20 and 30) |  |  | 
23 | CC[C@]1(C)C(=O)Nc2nccc(-c3nn([C@H]4CCNC4)c4ccccc34)c21 (single isomer, unassigned) [Example 65] | 31.6 to 100 nM | 50.1 nM | 316 to 1000 nM | 398 nM | 28 | C (C means a ratio of between 20 and 30) |  |  | 
24 | C[C@@]1(O)C(=O)Nc2nccc(-c3nn(C4(CC#N)CCC4)c4ccccc34)c21 (single isomer, unassigned) [Example 40] | ≤ 1 nM | 0.2 nM | 10 to 31.6 nM | 15.8 nM | 17 | D (D means a ratio of between 10 and 20) |  |  | 
25 | CC1(C)C(=O)Nc2nccc(-c3nn([C@H]4CCNC4)c4ccc(F)cc34)c21 [Example 73] | 10 to 31.6 nM |  | 316 to 1000 nM | 631 nM | 10 | D (D means a ratio of between 10 and 20) | 7.5 |  | 
26 | CC1(C)C(=O)Nc2nccc(-c3nn(C[C@@]4(C)COCCN4)c4cc(F)ccc34)c21 [Example 87] | ≤ 1 nM |  | 31.6 to 100 nM | 50.1 nM | 38 | B (B means a ratio of between 30 and 50) | 9.0 |  | 
